Laboratory results: patent US20120015907A1, “Furopyridine compounds and uses thereof” (NOVARTIS AG, priority 2010, published 2012)
“And” between values parts separate entries of the source, which are not always exact repeats. Equal entries are not always repeated.

biological target: T1, HCV polymerase (Hepatitis C virus genotype 1b, UniProt Q9WMX2); experiment: biochemical; conditions: polymerase assay of Biological Example 1; read-out: NS5B polymerase IC50
T1 construct: (His)6 (C)

| Compound | IC50 |
| --- | --- |
| CCc1cc2c(C(=O)NC)c(-c3ccc(F)cc3)oc2nc1N(CC1CCN(C(=O)OC(C)(C)C)CC1)S(C)(=O)=O [Example 21.997, tert-butyl 4-((N-(5-ethyl-2-(4-fluorophenyl)-3-(methylcarbamoyl)furo[2,3-b]pyridin-6-yl)methylsulfonamido)methyl)piperidine-1-carboxylate] | 148 nM |
| CNC(=O)c1c(-c2ccc(F)cc2)oc2nc(N(CC3CCCN(C(=O)OC(C)(C)C)C3)S(C)(=O)=O)c(I)cc12 (centres unmarked) [Example 18.92, tert-butyl 3-((N-(2-(4-fluorophenyl)-5-iodo-3-(methylcarbamoyl)furo[2,3-b]pyridin-6-yl)methylsulfonamido)methyl)piperidine-1-carboxylate] | 1020 nM |
| CCc1cc2c(C(=O)NC)c(-c3ccc(F)cc3)oc2nc1N(CCCC(=O)OC)S(C)(=O)=O [Example 21.1, methyl 4-(N-(5-ethyl-2-(4-fluorophenyl)-3-(methylcarbamoyl)furo[2,3-b]pyridin-6-yl)methylsulfonamido)butanoate] | 52 nM |
| CNC(=O)c1c(-c2ccc(F)cc2)oc2nc(N(C)S(C)(=O)=O)c(C(C)(F)F)cc12 [Example 8, 5-(1,1-difluoroethyl)-2-(4-fluorophenyl)-N-methyl-6-(N-methylmethylsulfonamido)furo[2,3-b]pyridine-3-carboxamide] | 125 nM |
| CCNC(=O)c1c(-c2ccc(F)cc2)oc2nc(N(C)S(C)(=O)=O)c(C3CC3)cc12 [Example 2.7, 5-cyclopropyl-N-ethyl-2-(4-fluorophenyl)-6-(N-methylmethylsulfonamido)furo[2,3-b]pyridine-3-carboxamide] | 44 nM |
| CNC(=O)c1c(-c2ccc(F)cc2)oc2nc(N(C)S(C)(=O)=O)c(CCCC(=O)N3CCC[C@H]3C(=O)OC)cc12 [Example 4.1, (S)-methyl 1-(4-(2-(4-fluorophenyl)-3-(methylcarbamoyl)-6-(N-methylmethylsulfonamido)furo[2,3-b]pyridin-5-yl)butanoyl)pyrrolidine-2-carboxylate] | 112 nM |
| CNC(=O)c1c(-c2ccc(F)cc2)oc2nc3c(cc12)C(C)(O)CCCN3S(C)(=O)=O (centres unmarked) [Example 32, 2-(4-Fluoro-phenyl)-5-hydroxy-9-methanesulfonyl-5-methyl-6,7,8,9-tetrahydro-5H-1-oxa-9,10-diaza-cyclohepta[f]indene-3-carboxylic acid methylamide] | 651 nM |
| CNC(=O)c1c(-c2ccc(F)cc2)oc2nc(N(C)S(C)(=O)=O)c(CCC#N)cc12 [Example 14, 5-(2-cyanoethyl)-2-(4-fluorophenyl)-N-methyl-6-(N-methylmethylsulfonamido)furo[2,3-b]pyridine-3-carboxamide] | 147 nM |
| CNC(=O)c1c(-c2ccc(C)cc2)oc2nc(N(CCc3ccccc3C(=O)O)S(C)(=O)=O)c(C3CC3)cc12 [Example 45, 2-(2-(N-(5-cyclopropyl-3-(methylcarbamoyl)-2-(p-tolyl)furo[2,3-b]pyridin-6-yl)methylsulfonamido)ethyl)benzoic acid] | 8 nM |
| CNC(=O)c1c(-c2ccc(C)cc2)oc2nc(N(CCCCC(C(=O)O)S(C)(=O)=O)S(C)(=O)=O)c(C3CC3)cc12 (centres unmarked) [Example 46, 6-(N-(5-cyclopropyl-3-(methylcarbamoyl)-2-(p-tolyl)furo[2,3-b]pyridin-6-yl)methylsulfonamido)-2-(methylsulfonyl)hexanoic acid] | 3 nM |
| CNC(=O)c1c(-c2ccc(C)cc2)oc2nc(N(CCCC3CCCC3C(=O)O)S(C)(=O)=O)c(I)cc12 (centres unmarked) [Example 18.9991, 2-(3-(N-(5-iodo-3-(methylcarbamoyl)-2-p-tolylfuro[2,3-b]pyridin-6-yl)methylsulfonamido)propyl)cyclopentanecarboxylic acid] | 5 nM |

Further lines, results first:

| IC50 | Compound |
| --- | --- |
| 74 nM | CCc1cc2c(C(=O)NC)c(-c3ccc(F)cc3)oc2nc1N(CCCN(C)S(=O)(=O)c1ccccc1)S(C)(=O)=O [Example 23.9, 5-ethyl-2-(4-fluorophenyl)-N-methyl-6-(N-(3-(N-methylphenylsulfonamido)propyl)methylsulfonamido) furo[2,3-b]pyridine-3-carboxamide] |
| 3 nM | CNC(=O)c1c(-c2ccc(C)cc2)oc2nc(N(CCCCO)S(C)(=O)=O)c(C3CC3)cc12 [Example 23.99994, 5-cyclopropyl-6-(N-(4-hydroxybutyl)methylsulfonamido)-N-methyl-2-p-tolylfuro[2,3-b]pyridine-3-carboxamide] |
| 1060 nM | CCc1cc2c(C(=O)NC)c(-c3ccc(F)cc3)oc2nc1N(CCN1Cc2ccccc2S1(=O)=O)S(C)(=O)=O [Example 22.994, 6-{[2-(1,1-Dioxo-1,3-dihydrobenzo[d]isothiazol-2-yl)-ethyl]-methanesulfonyl-amino}-5-ethyl-2-(4-fluoro-phenyl)-furo[2,3-b]pyridine-3-carboxylic acid methylamide] |
| 3 nM | CNC(=O)c1c(-c2ccc(C)cc2)oc2nc(N(CCCCC3(C(=O)O)CCOCC3)S(C)(=O)=O)c(C3CC3)cc12 [Example 29.95, 4-(4-(N-(5-cyclopropyl-3-(methylcarbamoyl)-2-p-tolylfuro[2,3-b]pyridin-6-yl)methylsulfonamido)butyl) tetrahydro-2H-pyran-4-carboxylic acid] |
| 44 nM | CCc1cc2c(C(=O)NC)c(-c3ccc(F)cc3)oc2nc1N(CCCCC1=C(O)CCC1=O)S(C)(=O)=O [Example 23.94, 5-ethyl-2-(4-fluorophenyl)-6-(N-(4-(2-hydroxy-5-oxocyclopent-1-enyl)butyl)methylsulfonamido)-N-methylfuro[2,3-b]pyridine-3-carboxamide] |
| 58 nM | CCc1cc2c(C(=O)NC)c(-c3ccc(F)cc3)oc2nc1N(CCCN(C)C(C)=O)S(C)(=O)=O [Example 23.997, 5-ethyl-2-(4-fluorophenyl)-N-methyl-6-(N-(3-(N-methylacetamido)propyl)methylsulfonamido)furo[2,3-b]pyridine-3-carboxamide] |
| 251 nM | CCc1cc2c(C(=O)NC)c(-c3ccc(F)cc3)oc2nc1N(CCOc1cccc(C(=O)OC)c1)S(C)(=O)=O [Example 22.6, methyl 3-(2-(N-(5-ethyl-2-(4-fluorophenyl)-3-(methylcarbamoyl)furo[2,3-b]pyridin-6-yl)methylsulfonamido)ethoxy)benzoate] |
| 474 nM | CNC(=O)c1c(-c2ccc(F)cc2)oc2nc3c(cc12)CCCCN(S(C)(=O)=O)CCCN3S(C)(=O)=O [Example 36.5, 2-(4-Fluoro-phenyl)-9,13-bis-methanesulfonyl-6,7,8,9,10,11,12,13-octahydro-5H-1-oxa-9,13,14-triaza-cycloundeca[f]indene-3-carboxylic acid methylamide] |
| 6 nM | CNC(=O)c1c(-c2ccc(C)cc2)oc2nc(N(CCC[C@H](C)C(=O)OCOP(=O)(OCc3ccccc3)OCc3ccccc3)S(C)(=O)=O)c(C3CC3)cc12 [Example 49.1, (S)-((bis(benzyloxy)phosphoryl)oxy)methyl 5-(N-(5-cyclopropyl-3-(methylcarbamoyl)-2-(p-tolyl)furo[2,3-b]pyridin-6-yl)methylsulfonamido)-2-methylpentanoate] |
| 151 nM and 35 nM | CNC(=O)c1c(-c2ccc(F)cc2)oc2nc(N(CCCn3ccnc3)S(C)(=O)=O)c(I)cc12 [Example 23.5, 6-(N-(3-(1H-imidazol-1-yl)propyl)methylsulfonamido)-2-(4-fluorophenyl)-5-iodo-N-methylfuro[2,3-b]pyridine-3-carboxamide] |
| 231 nM | CNC(=O)c1c(-c2ccc(F)cc2)oc2nc3c(cc12)C(C)CCN3S(C)(=O)=O (centres unmarked) [Example 36.6, 2-(4-fluorophenyl)-N,5-dimethyl-8-(methylsulfonyl)-5,6,7,8-tetrahydrofuro[2,3-b][1,8]naphthyridine-3-carboxamide] |
| 14 nM | CNC(=O)c1c(-c2ccc(C)cc2)oc2nc(N(CCCCCN)S(C)(=O)=O)c(C3CC3)cc12 [Example 23.999994, 6-(N-(5-aminopentyl)methylsulfonamido)-5-cyclopropyl-N-methyl-2-p-tolylfuro[2,3-b]pyridine-3-carboxamide] |
| 2 nM | CNC(=O)c1c(-c2ccc(C)cc2)oc2nc(N(CCCC(C)(COC)C(=O)O)S(C)(=O)=O)c(C3CC3)cc12 (centres unmarked) [Example 43.1, 5-(N-(5-cyclopropyl-3-(methylcarbamoyl)-2-p-tolylfuro[2,3-b]pyridin-6-yl)methylsulfonamido)-2-(methoxymethyl)-2-methylpentanoic acid] |
| 3 nM | CCc1ccc(-c2oc3nc(N(CCCC(C)(OC)C(=O)O)S(C)(=O)=O)c(C4CC4)cc3c2C(=O)NC)cc1 (centres unmarked) [Example 29.9991, 5-(N-(5-cyclopropyl-2-(4-ethylphenyl)-3-(methylcarbamoyl)furo[2,3-b]pyridin-6-yl)methylsulfonamido)-2-methoxy-2-methylpentanoic acid] |
| 2 nM | CNC(=O)c1c(-c2ccc(C)cc2)oc2nc(N(CCC[C@@H](C)C(=O)N[C@@H](C(=O)OC)c3ccccc3)S(C)(=O)=O)c(C3CC3)cc12 [Example 29.99998, (R)-methyl 2-((R)-5-(N-(5-cyclopropyl-3-(methylcarbamoyl)-2-p-tolylfuro[2,3-b]pyridin-6-yl)methylsulfonamido)-2-methylpentanamido)-2-phenylacetate] |
| 16 nM | CNC(=O)c1c(-c2ccc(C)cc2)oc2nc(N(CCCNCCCC(=O)O)S(C)(=O)=O)c(C3CC3)cc12 [Example 23.999996, 4-(3-(N-(5-cyclopropyl-3-(methylcarbamoyl)-2-p-tolylfuro[2,3-b]pyridin-6-yl)methylsulfonamido)propylamino)butanoic acid] |
| 114 nM | CNC(=O)c1c(-c2ccc(F)cc2)oc2nc(N(CCn3ccnc3)S(C)(=O)=O)c(I)cc12 [Example 23.995, 6-(N-(2-(1H-imidazol-1-yl)ethyl)methylsulfonamido)-2-(4-fluorophenyl)-5-iodo-N-methylfuro[2,3-b]pyridine-3-carboxamide] |
| 3 nM | CNC(=O)c1c(-c2ccc(F)cc2)oc2nc(N(CCCCC(=O)O)S(C)(=O)=O)c(C3CC3)cc12 [Example 26.9, 5-(N-(5-cyclopropyl-2-(4-fluorophenyl)-3-(methylcarbamoyl)furo[2,3-b]pyridin-6-yl)methylsulfonamido) pentanoic acid] |
